25 molecules from patent US20220041578A1, “ISOINDOLINE COMPOUND, AND PREPARATION METHOD, PHARMACEUTICAL COMPOSITION, AND APPLICATION OF ISOINDOLINE COMPOUND” (Shanghai Institute of Meteria Medica, Chinese Academy of …, priority 2018, published 2022) can be followed below.

The test system of the assay is MM.1S cells. As to the kind of experiment: Effect of the compound on the proliferation of MM.1S cells (MTS). In kind it is cell-based. Particulars: Homo sapiens, MM1.S, 168 h, 7 days, read-out: Cell inhibitory activity (IC50). On the procedure: MM.1S cells were cultured with 1640 plus 10% fetal bovine serum and collected. The cell concentration was diluted according to the action time of 7 days, and 180 ul cell suspension was added to each well of the 96-well cell plate to make the cell count to be 20,000. 20 ul of DMSO with a final concentration of 0.2% was added to the control cell wells. The compound was diluted 5-fold with the 10 mM stock solution, and 20 ul was also added to the compound cell wells (the final concentration of DMSO is 0.2%). The cells were placed in a 37° C., 5% CO2 incubator and incubated for 7 days. After preparing the reaction solution according to the MTS kit (Promega, G5430), 20 μL was added to each well, incubated in a 37° C., 5% CO2 incubator for 3-4 h. Read the 490 nm absorbance value with a microtiter plate, and used the 690 nm absorbance value as the background value and OD490-OD690 as the final initial data. The formula for calculating the inhibition rate of the compound is: inhibition rate=(OD DMSO-ODcompound)/(ODDMSO-Oblank)×100%. The compound's proliferation inhibition IC50 was fitted by Graph Pad Prism 5.0. The experiment was repeated three times, and three parallel experiments were used to calculate the average and standard deviation each time.

Each structure is given as a SMILES string.

The IC50 is the concentration that inhibits the measured activity by half. As to `O=C1CCC(N2Cc3c(OCCc4cn(-c5ccc(OC(F)(F)F)cc5)nn4)cccc3C2=O)C(=O)N1` (stereo not shown) [Compound 61, 3-(1-oxo-4-(2-(1-(4-(trifluoromethoxy)phenyl)-1H-1,2,3-triazol-4-)ethoxy)isoindoline-2-) piperidine-2,6-dione], the IC50 was below 150 nM.

On to `O=C1CCC(N2Cc3c(CCc4cnc(-c5ccc(OC(F)(F)F)cc5)o4)cccc3C2=O)C(=O)N1` (stereo not shown) [Compound 62, 3-(1-oxo-4-(2-(2-(4-(trifluoromethoxy)phenyl)oxazol-5-yl)ethyl)isoindolin-2-yl) piperidine-2,6-dione], for which the IC50 was below 150 nM.

On to `O=C1CCC(N2Cc3c(CCCc4cnc(-c5ccc(OC(F)(F)F)cc5)o4)cccc3C2=O)C(=O)N1` (stereo not shown) [Compound 63, 3-(1-oxo-4-(3-(2-(4-(trifluoromethoxy)phenyl)oxazol-5-yl)propyl)isoindolin-2-yl) piperidine-2,6-dione], for which the IC50 was above 20000 nM.

Take `O=C1CCC(N2Cc3c(OCC4CN(c5ccc(OC(F)(F)F)cc5)C4)cccc3C2=O)C(=O)N1` (stereo not shown) [Compound 64, 3-(1-oxo-4-((1-(4-trifluoromethoxyphenyl)azetidin-3-)methoxy)isoindolin-2-) piperidine-2,6-dione]: the IC50 lay within 150 to 20000 nM.

Take `O=C1CCC(N2Cc3c(OC[C@H]4CCN(c5ccnc6ccccc56)C4)cccc3C2=O)C(=O)N1` (stereo partly drawn) [Compound 65, 3-(1-oxo-4-(((S)-1-(quinolin-4-)pyrrolin-3-)methoxy)isoindolin-2-) piperidine-2,6-dione]: the IC50 was in the range of 150 to 20000 nM.

As to `O=C1CCC(N2Cc3c(OC[C@@H]4CCN(c5ccnc6ccccc56)C4)cccc3C2=O)C(=O)N1` (stereo partly drawn) [Compound 66, 3-(1-oxo-4-(((R)-1-(quinolin-4-)pyrrolin-3-)methoxy)isoindolin-2-) piperidine-2,6-dione], the half-inhibitory concentration (IC50) was 150 to 20000 nM.

In the case of `O=C1CCC(N2Cc3c(OCC4CCN(c5ccnc6ccccc56)CC4)cccc3C2=O)C(=O)N1` (stereo not shown) [Compound 67, 3-(1-oxo-4-((1-(quinolin-4-)piperidin-4-)methoxy)isoindolin-2-) piperidin-2,6-dione], the IC50 was below 150 nM.

As to `O=C1CCC(N2Cc3c(OCCC4CCN(c5ccnc6ccccc56)CC4)cccc3C2=O)C(=O)N1` (stereo not shown) [Compound 68, 3-(1-oxo-4-(2-(1-(quinolin-4-)piperidin-4-)ethoxy)isoindolin-2-) piperidin-2,6-dione], the IC50 was below 150 nM.

Turning to `O=C1CCC(N2Cc3c(OCCC4CN(c5ccnc6ccccc56)C4)cccc3C2=O)C(=O)N1` (stereo not shown) [Compound 69, 3-(1-oxo-4-(2-(1-(quinolin-4-)azetidin-3-)ethoxy)isoindolin-2-) piperidine-2,6-dione], the IC50 was 150 to 20000 nM.

`O=C1CCC(N2Cc3c(OCC4CCC(c5ccc(OC(F)(F)F)cc5)CC4)cccc3C2=O)C(=O)N1` (stereo not shown) [Compound 72, 3-(1-oxo-4-((4-(4-(trifluoromethoxy)phenyl)cyclohexyl)methoxy)isoindolin-2-) piperidine-2,6-dione]: the IC50 is below 150 nM.

Regarding `O=C1CCC(N2Cc3c(OCC4CCN(c5ccc(OC(F)(F)F)cc5)CC4)cccc3C2=O)C(=O)N1` (stereo not shown) [Compound 73, 3-(1-oxo-4-((1-(4-(trifluoromethoxy)phenyl)piperidin-4-)methoxy)isoindolin-2-) piperidin-2,6-dione], the IC50 is below 150 nM.

As for `[2H]c1c([2H])c([2H])c(-n2cc(COc3cccc4c3CN(C3CCC(=O)NC3=O)C4=O)nn2)c([2H])c1[2H]` (stereo not shown) [Compound 78, 3-(1-oxo-4-((1-(phenyl-D5)-1H-1,2,3-triazol-4-yl)methoxy)isoindolin-2-yl) piperidine-2,6-dione], the IC50 was below 150 nM.

Take `[2H]c1c([2H])c([2H])c(-n2cc(COc3cc(F)cc4c3CN(C3CCC(=O)NC3=O)C4=O)nn2)c([2H])c1[2H]` (stereo not shown) [Compound 79, 3-(6-fluoro-1-oxo-4-((1-(phenyl-D5)-1H-1,2,3-triazol-4-yl)methoxy)isoindolin-2-yl) piperidine-2,6-dione]: the IC50 is below 150 nM.

Take `O=C1CCC(N2Cc3c(OCc4cnc(-c5ccc(OC(F)(F)F)cc5)o4)cc(F)cc3C2=O)C(=O)N1` (stereo not shown) [Compound 80, 3-(6-fluoro-1-oxo-4-((2-(4-(trifluoromethoxy)phenyl)oxazol-5-yl)methoxy)isoindolin-2-yl) piperidine-2,6-dione]: the IC50 is below 150 nM.

Turning to `O=C1CCC(N2Cc3c(NCc4cnc(-c5ccc(OC(F)(F)F)cc5)o4)cccc3C2=O)C(=O)N1` (stereo not shown) [Compound 82], the IC50 was below 150 nM.

Consider `Cc1c(COc2cccc3c2CN(C2CCC(=O)NC2=O)C3=O)cnn1-c1c(Cl)cc(C(F)(F)F)cc1Cl` (stereo not shown) [Compound 83], for which the IC50 was below 150 nM.

As for `Cc1c(COc2cccc3c2CN(C2CCC(=O)NC2=O)C3=O)cnn1-c1c(Cl)cc(OC(F)(F)F)cc1Cl` (stereo not shown) [Compound 84, 3-(4-((1-(2,6-dichloro-4-(trifluoromethoxy)phenyl)-5-methyl-1H-pyrazol-4-yl)methoxy)-1-isoindolin-2-1) piperidine-2,6-dione], the IC50 was below 150 nM.

`Cc1cc(COc2cccc3c2CN(C2CCC(=O)NC2=O)C3=O)nn1-c1c(Cl)cc(OC(F)(F)F)cc1Cl` (stereo not shown) [Compound 85, 3-(4-((1-(2,6-dichloro-4-(trifluoromethoxy)phenyl)-5-methyl-1H-pyrazol-3-yl)methoxy)-1-isoindolin-2-yl)piperidine-2,6-dione]: the IC50 was below 150 nM.

For `O=C1CCC(N2Cc3c(OCc4cn(C56CC7CC(CC(O)(C7)C5)C6)nn4)cccc3C2=O)C(=O)N1` [Compound 86, 3-(4-((1-((1R, 3S, 5R, 7S)-3-hydroxyadamantan-1-yl)-1H-1,2,3-triazol-4-yl)methoxy)-1-isoindolin-pyridin-2-yl) piperidin-2,6-dione], the IC50 is above 20000 nM.

Regarding `O=C1CCC(N2Cc3c(OCc4cn(C5C6CC7CC(C6)CC5C7)nn4)cccc3C2=O)C(=O)N1` [Compound 87, 3-(4-((1-((1R, 3R, 5R, 7R)-adamantan-2-yl)-1H-1,2,3-triazol-4-yl)methoxy)-1-isoindolin-2-yl) piperidin-2,6-dione], the IC50 was below 150 nM.

On to `CC(n1cc(COc2cccc3c2CN(C2CCC(=O)NC2=O)C3=O)nn1)C12CC3CC(CC(C3)C1)C2` [Compound 88, 3-(4-((1-(1-((1S, 3S)-adamantan-1-yl)ethyl)-1H-1,2,3-triazol-4-yl)methoxy)-1-isoindolin-2-yl) piperidin-2,-6-dione], for which the IC50 is below 150 nM.

As to `C[C@]12CC3CC(n4cc(COc5cccc6c5CN(C5CCC(=O)NC5=O)C6=O)nn4)(C1)C[C@@](C)(C3)C2` (stereo partly drawn) [Compound 89, 3-(4-((1-((1R, 3R, 5S, 7R)-3,5-dimethyladamantin-1-yl)-1H-1,2,3-triazol-4-yl)methoxy)-1-isoindolin-2-yl) piperidin-2,6-dione], the IC50 was above 20000 nM.

Take `O=C1CCC(N2Cc3c(OCc4cnc(-c5ccc(Cl)c(Cl)c5)o4)cccc3C2=O)C(=O)N1` (stereo not shown) [Compound 91, 3-(4-((2-(3,4-dichlorophenyl)oxazol-5-yl)methoxy)-1-oxoisoindol-2-yl) piperidine-2,6-dione]: the IC50 is below 150 nM.

Turning to `O=C1CCC(N2Cc3c(OCc4cn(-c5ccc(OC6CC6)cc5F)nn4)cccc3C2=O)C(=O)N1` (stereo not shown) [Compound 92, 3-(4-((1-(4-cyclopropoxy-2-fluorophenyl)-1H-1,2,3-triazol-4-yl)methoxy)-1-oxoisoindol-2-yl) piperidine-2,6-dione], the IC50 is 150 to 20000 nM.

On to `O=C1CCC(N2Cc3c(NCc4cnc(-c5ccccc5OC(F)(F)F)o4)cccc3C2=O)C(=O)N1` (stereo not shown) [Compound 94], for which the IC50 fell in the range of 150 to 20000 nM.
